# In ChEMBL document CHEMBL3885861, “Open TG-GATES”:
# Species on record: Rattus norvegicus
# Experiment: Open TG-GATES - Regimen: Daily Repeat
# Assay type: toxicity, organism-based, Sprague-Dawley
# Parameters: regimen Daily Repeat, gender Male, age 6 weeks
# Details: in vivo, po, 100 mg/kg, route gavage, dose level Low; for APTT / Bas / Eos / Fbg / Hb / Ht / Lym / MCH / MCHC / MCV / Mono / Neu / PT / Plat / RBC / Ret / WBC: tissue Blood; for KIDNEY_L / KIDNEY_R / KIDNEY_TOTAL: tissue Kidney; for LIVER: tissue Liver; for A/G / ALP / ALT / AST / BUN / CRE / Ca / Cl / DBIL / GLC / IP / K / LDH / Na / PL / RALB / TBIL / TC / TG / TP / gamma-GTP: tissue Plasma
structure (smiles),measurement,setting,value
O=C(N[C@H](CO)[C@H](O)c1ccc([N+](=O)[O-])cc1)C(Cl)Cl [CHLORAMPHENICOL],TERMINAL_BW,"72 h, time 3 day",251 g
same,APTT,"72 h, time 3 day",16.1 s
same,Bas,"72 h, time 3 day",0%
same,Eos,"72 h, time 3 day",1%
same,Fbg,"72 h, time 3 day",273.2 mg/dL
same,Hb,"72 h, time 3 day",13.3 g/dL
same,Ht,"72 h, time 3 day",40.4%
same,Lym,"72 h, time 3 day",79.4%
same,MCH,"72 h, time 3 day",21.8 pg
same,MCHC,"72 h, time 3 day",32.8%
same,MCV,"72 h, time 3 day",66.6 fL
same,Mono,"72 h, time 3 day",3.2%
same,Neu,"72 h, time 3 day",16.2%
same,PT,"72 h, time 3 day",14.7 s
same,Plat,"72 h, time 3 day",116.8 x10_4/uL
same,RBC,"72 h, time 3 day",607.2 x10_4/ul
same,Ret,"72 h, time 3 day",5.4%
same,WBC,"72 h, time 3 day",102.1 x10_2/uL
same,KIDNEY_L,"72 h, time 3 day",1.1 g
same,KIDNEY_R,"72 h, time 3 day",1 g
same,KIDNEY_TOTAL,"72 h, time 3 day",2.1 g
same,LIVER,"72 h, time 3 day",11.3 g
same,A/G,"72 h, time 3 day",0.9
same,ALP,"72 h, time 3 day",1563.4 IU/L
same,ALT,"72 h, time 3 day",45 IU/L
same,AST,"72 h, time 3 day",69.4 IU/L
same,BUN,"72 h, time 3 day",15.6 mg/dL
same,CRE,"72 h, time 3 day",0.2 mg/dL
same,Ca,"72 h, time 3 day",11.1 mg/dL
same,Cl,"72 h, time 3 day",104.6 meq/L
same,DBIL,"72 h, time 3 day",0.02 mg/dL
same,GLC,"72 h, time 3 day",178.4 mg/dL
same,IP,"72 h, time 3 day",6.8 mg/dL
same,K,"72 h, time 3 day",4.3 meq/L
same,LDH,"72 h, time 3 day",95.6 IU/L
same,Na,"72 h, time 3 day",141.2 meq/L
same,PL,"72 h, time 3 day",146.8 mg/dL
same,RALB,"72 h, time 3 day",2.5 g/dL
same,TBIL,"72 h, time 3 day",0.054 mg/dL
same,TC,"72 h, time 3 day",80 mg/dL
same,TG,"72 h, time 3 day",97.6 mg/dL
same,TP,"72 h, time 3 day",5.4 g/dL
same,gamma-GTP,"72 h, time 3 day",0.8 IU/L
same,TERMINAL_BW,"[…], time 7 day",287.8 g
same,TERMINAL_BW,"[…], time 14 day",333.6 g
same,TERMINAL_BW,"[…], time 28 day",409.6 g
same,APTT,"[…], time 7 day",16.2 s
same,Bas,"[…], time 7 day",0%
same,Eos,"[…], time 7 day",0.8%
same,Fbg,"[…], time 7 day",308.8 mg/dL
same,Hb,"[…], time 7 day",14.2 g/dL
same,Ht,"[…], time 7 day",44.4%
same,Lym,"[…], time 7 day",78.2%
same,MCH,"[…], time 7 day",21.1 pg
same,MCHC,"[…], time 7 day",32.2%
same,MCV,"[…], time 7 day",65.7 fL
same,Mono,"[…], time 7 day",3%
same,Neu,"[…], time 7 day",17.4%
same,PT,"[…], time 7 day",14.4 s
same,Plat,"[…], time 7 day",131.5 x10_4/uL
same,RBC,"[…], time 7 day",675 x10_4/ul
same,Ret,"[…], time 7 day",6%
same,WBC,"[…], time 7 day",90.7 x10_2/uL
same,APTT,"[…], time 14 day",14.7 s
same,Bas,"[…], time 14 day",0%
same,Eos,"[…], time 14 day",1.4%
same,Fbg,"[…], time 14 day",297.8 mg/dL
same,Hb,"[…], time 14 day",14.1 g/dL
same,Ht,"[…], time 14 day",43.4%
same,Lym,"[…], time 14 day",78%
same,MCH,"[…], time 14 day",20.2 pg
same,MCHC,"[…], time 14 day",32.5%
same,MCV,"[…], time 14 day",62.1 fL
same,Mono,"[…], time 14 day",2.4%
same,Neu,"[…], time 14 day",18%
same,PT,"[…], time 14 day",14.5 s
same,Plat,"[…], time 14 day",121.6 x10_4/uL
same,RBC,"[…], time 14 day",698.2 x10_4/ul
same,Ret,"[…], time 14 day",3.8%
same,WBC,"[…], time 14 day",96.2 x10_2/uL
same,APTT,"[…], time 28 day",16.5 s
same,Bas,"[…], time 28 day",0%
same,Eos,"[…], time 28 day",1%
same,Fbg,"[…], time 28 day",278 mg/dL
same,Hb,"[…], time 28 day",14.9 g/dL
same,Ht,"[…], time 28 day",43.7%
same,Lym,"[…], time 28 day",81%
same,MCH,"[…], time 28 day",19.5 pg
same,MCHC,"[…], time 28 day",34.2%
same,MCV,"[…], time 28 day",57 fL
same,Mono,"[…], time 28 day",1.2%
same,Neu,"[…], time 28 day",15.8%
same,PT,"[…], time 28 day",14.8 s
same,Plat,"[…], time 28 day",106 x10_4/uL
same,RBC,"[…], time 28 day",767.4 x10_4/ul
same,Ret,"[…], time 28 day",2.3%
same,WBC,"[…], time 28 day",79.5 x10_2/uL
same,KIDNEY_L,"[…], time 7 day",1.2 g
same,KIDNEY_R,"[…], time 7 day",1.2 g
same,KIDNEY_TOTAL,"[…], time 7 day",2.4 g
same,KIDNEY_L,"[…], time 14 day",1.3 g
same,KIDNEY_R,"[…], time 14 day",1.3 g
same,KIDNEY_TOTAL,"[…], time 14 day",2.6 g
same,KIDNEY_L,"[…], time 28 day",1.6 g
same,KIDNEY_R,"[…], time 28 day",1.5 g
same,KIDNEY_TOTAL,"[…], time 28 day",3.1 g
same,LIVER,"[…], time 7 day",12.9 g
same,LIVER,"[…], time 14 day",14.9 g
same,LIVER,"[…], time 28 day",16.8 g
same,A/G,"[…], time 7 day",0.8
same,ALP,"[…], time 7 day",1500.2 IU/L
same,ALT,"[…], time 7 day",49 IU/L
same,AST,"[…], time 7 day",71.2 IU/L
same,BUN,"[…], time 7 day",13.6 mg/dL
same,CRE,"[…], time 7 day",0.2 mg/dL
same,Ca,"[…], time 7 day",11.7 mg/dL
same,Cl,"[…], time 7 day",106.2 meq/L
same,DBIL,"[…], time 7 day",0.026 mg/dL
same,GLC,"[…], time 7 day",189.6 mg/dL
same,IP,"[…], time 7 day",8.3 mg/dL
same,K,"[…], time 7 day",4.2 meq/L
same,LDH,"[…], time 7 day",65.8 IU/L
same,Na,"[…], time 7 day",144.2 meq/L
same,PL,"[…], time 7 day",156.2 mg/dL
same,RALB,"[…], time 7 day",2.7 g/dL
same,TBIL,"[…], time 7 day",0.062 mg/dL
same,TC,"[…], time 7 day",82.6 mg/dL
same,TG,"[…], time 7 day",72.4 mg/dL
same,TP,"[…], time 7 day",5.9 g/dL
same,gamma-GTP,"[…], time 7 day",1.2 IU/L
same,A/G,"[…], time 14 day",0.8
same,ALP,"[…], time 14 day",1535.2 IU/L
same,ALT,"[…], time 14 day",41.8 IU/L
same,AST,"[…], time 14 day",67.4 IU/L
same,BUN,"[…], time 14 day",16 mg/dL
same,CRE,"[…], time 14 day",0.2 mg/dL
same,Ca,"[…], time 14 day",11.2 mg/dL
same,Cl,"[…], time 14 day",105 meq/L
same,DBIL,"[…], time 14 day",0.022 mg/dL
same,GLC,"[…], time 14 day",191 mg/dL
same,IP,"[…], time 14 day",6.5 mg/dL
same,K,"[…], time 14 day",3.8 meq/L
same,LDH,"[…], time 14 day",54.8 IU/L
same,Na,"[…], time 14 day",142.8 meq/L
same,PL,"[…], time 14 day",157.4 mg/dL
same,RALB,"[…], time 14 day",2.6 g/dL
same,TBIL,"[…], time 14 day",0.05 mg/dL
same,TC,"[…], time 14 day",77.8 mg/dL
same,TG,"[…], time 14 day",133 mg/dL
same,TP,"[…], time 14 day",5.8 g/dL
same,gamma-GTP,"[…], time 14 day",1 IU/L
same,A/G,"[…], time 28 day",0.8
same,ALP,"[…], time 28 day",1164.4 IU/L
same,ALT,"[…], time 28 day",39.2 IU/L
same,AST,"[…], time 28 day",61.4 IU/L
same,BUN,"[…], time 28 day",16.4 mg/dL
same,CRE,"[…], time 28 day",0.2 mg/dL
same,Ca,"[…], time 28 day",10.9 mg/dL
same,Cl,"[…], time 28 day",104.4 meq/L
same,DBIL,"[…], time 28 day",0.02 mg/dL
same,GLC,"[…], time 28 day",171.2 mg/dL
same,IP,"[…], time 28 day",6.1 mg/dL
same,K,"[…], time 28 day",3.5 meq/L
same,LDH,"[…], time 28 day",44.6 IU/L
same,Na,"[…], time 28 day",144.2 meq/L
same,PL,"[…], time 28 day",152.2 mg/dL
same,RALB,"[…], time 28 day",2.7 g/dL
same,TBIL,"[…], time 28 day",0.058 mg/dL
same,TC,"[…], time 28 day",75.2 mg/dL
same,TG,"[…], time 28 day",97.6 mg/dL
same,TP,"[…], time 28 day",6.2 g/dL
same,gamma-GTP,"[…], time 28 day",1 IU/L
